Reference: patent US20130172424A1, “METHODS AND COMPOSITIONS FOR TREATING DIABETES” (GOLDEN BIOTECHNOLOGY CORPORATION, priority 2011, published 2013)
Where “and” joins values, the source holds several entries; their conditions need not be identical. Equal values may be shown once.

System: diabetes induced by STZ in SD rats
Assay: Treatment of diabetes induced by STZ in rats
Assay type: in vivo, Sprague-Dawley rat
Conditions: Group B (AopE+STZ+Compound 1), individual rats ID 1-4, before meals
Procedure: The effects of exemplary cyclohexnone compound 1 in treating a subject suffering from diabetes were investigated in a Sprague-Dawley rat model over a four week period. The example describes the results of such experiments.
In vivo models. A rat model of diabetes was established by low-dose streptozotocin (STZ, 60 mg/kg) injection in SD rats. Rats of the same batch fed with normal chow (NRC) were used as a control (n=4).
Study group. Group A: diabetes without treatment group, n=6; Group B: AopE+STZ+Compound 1, n=4. […] Rats of Group B (treatment group) have the following blood sugar data before meals: […]

With `COC1=C(OC)C(O)C(C/C=C(\C)CC/C=C(\C)CCC=C(C)C)C(C)C1=O` (centres unmarked) [Compound 1, 4-hydroxy-2,3-dimethoxy-6-methyl-5-(3,7,11-trimethyldodeca-2,6,10-trienyl)cyclohex-2-enone] the “2nd week blood sugar level” value (2nd week) was 421 mg/dL and 330 mg/dL and 261 mg/dL and 484 mg/dL and the “4th week Blood sugar level” value (4th week, untreated diabetic rats about 400-500 mg/dl, control about 100 mg/dl) was 147 mg/dL and 149 mg/dL and 89 mg/dL and 388 mg/dL.
